“And” between values parts separate entries of the source, which are not always exact repeats. Identical values can stand only once. Like-named read-outs stand apart in the source and are kept apart here.
Tests used:
[1] = target: human ACC1 (Homo sapiens, UniProt Q13085); assay: Human ACC1 enzyme assay (ADP-Glo); assay type: biochemical; conditions: individual measurement (measurement no./preparation no. in table), read-out: ACC 1 IC50
Experimental: (§1) Typical concentrations were in the range of 1.75 μl.

[2] = system: human ACC1; assay: Human ACC1 enzyme assay (ADP-Glo); assay type: biochemical
Experimental: as §1

[3] = target: human ACC2 (Homo sapiens (Human), UniProt O00763); assay: Human ACC2 enzyme assay (ADP-Glo); conditions: read-out: ACC 2 IC50, individual measurement (measurement no./preparation no. in table)
[4] = system: human PC-3 cells; conditions: for T/C: final tumour weight; for tolerability (good: body weight change <=minus 10% and 100% survival): 80 mg/kg
Experimental: Xenograft models in immunosuppressed mice were used to determine the antitumour activity in living organisms.
Use was made primarily of a prostate carcinoma model with hormone-independent human PC-3 cells in male nude mice (NMRI-nude (nu/nu) mice, Taconic M&B A/S). To this end, 3 million tumour cells (suspended in medium+Matrigel 1:1, final 0.1 ml) were injected subcutaneously into the side of each animal. When the tumours extended to an area of 20-30 mm^2, the mice were randomized into therapy groups and therapy was initiated. […] At this point in time, the experiment was terminated in all groups and the prepared tumours were weighed.
The T/C value was calculated as primary success parameter using the effect on the final tumour weight: mean tumour weight in the treatment group divided by mean of the tumour weight in the vehicle group.
(§2) Administration route: oral
Vehicle: PEG400/ethanol/Solutol HS 15 (70/5/25, v/v/v)
Administration volume: 10 ml/kg
Number of mice: see Table 8

[5] = Membrane affinity logMA (MA-Transil); assay type: physicochemical; conditions: buffer pH 7.4
Experimental: Assays for Determining Membrane Affinity logMA and Protein Binding to Human Serum Albumin (HSA):
Determination of membrane affinity and protein binding to human serum albumin (HSA) was carried out via Transil technology (literature: A. Loidl-Stahlhofen, A. Eckert, T. Hartmann, M. Schöttner J Pharm Sci 90, 599-606 (2001)). Transil® (commercially available from Sovicell in Leipzig, Germany) are glass beads (diameter 10-12 μm) coated with a double-layer membrane of phosphatidylcholine (MA-Transil) or covalently attached human serum albumin (HSA-Transil).
To determine the logMA and the protein binding constant to HSA, the commercially available TRANSIL Intestinal Absorption & HSA Binding Combined Assay Kit was used. This is a 96-well microtitre plate (96 well-MTP) which is filled with Transil and can be used to determine MA-Transil and HSA-Transil binding of in each case eight active compounds. For each active compound, the Transil plate provides a row of 12 wells. Two wells serve as reference and are only filled with buffer pH 7.4. Five further wells contain MA-Transil in various increasing concentrations, the five remaining wells contain HSA-Transil in various increasing concentrations.
To determine binding of an active compound to Transil, the supernatant of the wells with Transil was quantified against the reference solution without Transil via HPLC-MS coupling (HPLC-MS=high performance liquid chromatography/mass spectrometry).
This is how the individual steps of the assay were carried out:
From the internal substance store, the active compounds were delivered in a 96-well MTP. This plate is referred to as mother plate. Each well contained 30 μl of a 10 mmol solution of active compound in DMSO (dimethyl sulphoxide). Two wells at the start (well A1) and at the end of the plate (well H12) were filled with 30 μl of a 10 mmol solution of warfarin in DMSO. Warfarin, whose membrane affinity and binding to HSA is known, serves to check whether the measurement is correct. The mother plate was used to prepare a daughter plate with a 1 to 4000 dilution with a mixture of buffer pH 7.4 and DMSO in a ratio of 1+1. The active compound concentration of each well was 2.5 μmol/liter, the volume of each well was 400 μl.
Using a Hamilton pipetting robot Microlab STAR, the 96 active compounds from the daughter plate were divided onto 12 Transil plates in total. From each well of the daughter plate, 12 times 20 μl were removed. The concentration of each well of the Transil plate was 0.25 μmol/liter, which corresponds to a dilution of 1 to 10. The DMSO content was 5%.
The filled Transil plates were each resuspended for two minutes, then allowed to stand at room temperature for at least two minutes and then centrifuged at 600 rotations per minute for five minutes. The pipetting robot was then used to remove 20 μl of supernatant from each well of the Transil plate and to transfer these to a separate microtitre plate. Here, the supernatants of in each case four Transil plates were pooled in a microtitre plate, so that at the end there were three pooled microtitre plates with in each case 80 μl of solution and an active compound concentration of 62.5 nM per well.
Prior to quantification of the active compounds by HPLC-MS, an optimization has to be carried out for each active compound where by way of a single injection daughter ion and optimum electrical voltages are determined. To this end, the pipetting robot prepared a dilution of the mother plate of 1 to 10 000 000 in an acetonitrile/water mixture in a ratio of 8+2 in a separate microtitre plate. This microtitre plate was measured by HPLC-MS using the software Discovery Quant Optimize from AB Sciex. The three pooled microtitre plates were measured by HPLC-MS using the software Discovery Quant Analyze from AB Sciex. […]

[6] = Effective AUC from plasma concentration time profile in the PC3 tumour model; assay type: in vivo, mouse
Experimental: The human pharmacokinetic (PK) parameters (Table 9) were predicted based on the in vivo PK parameters obtained for rats (single species scaling), taking into account the interspecies differences in the free fraction (fu) in the plasma. The effective AUC (area under curve) was determined based on the measured plasma concentration time profile for in vivo efficacy in the PC3 tumour model of the mouse (nu/nu mouse).

[7] = Maximum tolerated dose (MTD) in female nude mice; assay type: in vivo, mouse; conditions: for Deaths: 21 days, 1 administration per day
Experimental: To this end, initially the maximum tolerable dose (MTD) was determined using the following protocol:
The MTD was defined as the highest dose which could be administered without any animal dying during the treatment phase, and without any body weight loss of more than 10% compared to the initial weight.
as §2
• (Solutol HS15: polyoxyethylene ester of 12-hydroxystearic acid) Administration volume: 10 ml/kg: Protocol: see Table 7
The treatment phase was followed by an observation phase of 21 days.

[8] = 40 mg/kg oral, 20 days, 1 administration per day
[9] = 80 mg/kg oral, 14 days, 2 administrations per day
[10] = 80 mg/kg oral, 20 days, 1 administration per day

Chain of human ACC2 (O00763 27-2458 limits assumed): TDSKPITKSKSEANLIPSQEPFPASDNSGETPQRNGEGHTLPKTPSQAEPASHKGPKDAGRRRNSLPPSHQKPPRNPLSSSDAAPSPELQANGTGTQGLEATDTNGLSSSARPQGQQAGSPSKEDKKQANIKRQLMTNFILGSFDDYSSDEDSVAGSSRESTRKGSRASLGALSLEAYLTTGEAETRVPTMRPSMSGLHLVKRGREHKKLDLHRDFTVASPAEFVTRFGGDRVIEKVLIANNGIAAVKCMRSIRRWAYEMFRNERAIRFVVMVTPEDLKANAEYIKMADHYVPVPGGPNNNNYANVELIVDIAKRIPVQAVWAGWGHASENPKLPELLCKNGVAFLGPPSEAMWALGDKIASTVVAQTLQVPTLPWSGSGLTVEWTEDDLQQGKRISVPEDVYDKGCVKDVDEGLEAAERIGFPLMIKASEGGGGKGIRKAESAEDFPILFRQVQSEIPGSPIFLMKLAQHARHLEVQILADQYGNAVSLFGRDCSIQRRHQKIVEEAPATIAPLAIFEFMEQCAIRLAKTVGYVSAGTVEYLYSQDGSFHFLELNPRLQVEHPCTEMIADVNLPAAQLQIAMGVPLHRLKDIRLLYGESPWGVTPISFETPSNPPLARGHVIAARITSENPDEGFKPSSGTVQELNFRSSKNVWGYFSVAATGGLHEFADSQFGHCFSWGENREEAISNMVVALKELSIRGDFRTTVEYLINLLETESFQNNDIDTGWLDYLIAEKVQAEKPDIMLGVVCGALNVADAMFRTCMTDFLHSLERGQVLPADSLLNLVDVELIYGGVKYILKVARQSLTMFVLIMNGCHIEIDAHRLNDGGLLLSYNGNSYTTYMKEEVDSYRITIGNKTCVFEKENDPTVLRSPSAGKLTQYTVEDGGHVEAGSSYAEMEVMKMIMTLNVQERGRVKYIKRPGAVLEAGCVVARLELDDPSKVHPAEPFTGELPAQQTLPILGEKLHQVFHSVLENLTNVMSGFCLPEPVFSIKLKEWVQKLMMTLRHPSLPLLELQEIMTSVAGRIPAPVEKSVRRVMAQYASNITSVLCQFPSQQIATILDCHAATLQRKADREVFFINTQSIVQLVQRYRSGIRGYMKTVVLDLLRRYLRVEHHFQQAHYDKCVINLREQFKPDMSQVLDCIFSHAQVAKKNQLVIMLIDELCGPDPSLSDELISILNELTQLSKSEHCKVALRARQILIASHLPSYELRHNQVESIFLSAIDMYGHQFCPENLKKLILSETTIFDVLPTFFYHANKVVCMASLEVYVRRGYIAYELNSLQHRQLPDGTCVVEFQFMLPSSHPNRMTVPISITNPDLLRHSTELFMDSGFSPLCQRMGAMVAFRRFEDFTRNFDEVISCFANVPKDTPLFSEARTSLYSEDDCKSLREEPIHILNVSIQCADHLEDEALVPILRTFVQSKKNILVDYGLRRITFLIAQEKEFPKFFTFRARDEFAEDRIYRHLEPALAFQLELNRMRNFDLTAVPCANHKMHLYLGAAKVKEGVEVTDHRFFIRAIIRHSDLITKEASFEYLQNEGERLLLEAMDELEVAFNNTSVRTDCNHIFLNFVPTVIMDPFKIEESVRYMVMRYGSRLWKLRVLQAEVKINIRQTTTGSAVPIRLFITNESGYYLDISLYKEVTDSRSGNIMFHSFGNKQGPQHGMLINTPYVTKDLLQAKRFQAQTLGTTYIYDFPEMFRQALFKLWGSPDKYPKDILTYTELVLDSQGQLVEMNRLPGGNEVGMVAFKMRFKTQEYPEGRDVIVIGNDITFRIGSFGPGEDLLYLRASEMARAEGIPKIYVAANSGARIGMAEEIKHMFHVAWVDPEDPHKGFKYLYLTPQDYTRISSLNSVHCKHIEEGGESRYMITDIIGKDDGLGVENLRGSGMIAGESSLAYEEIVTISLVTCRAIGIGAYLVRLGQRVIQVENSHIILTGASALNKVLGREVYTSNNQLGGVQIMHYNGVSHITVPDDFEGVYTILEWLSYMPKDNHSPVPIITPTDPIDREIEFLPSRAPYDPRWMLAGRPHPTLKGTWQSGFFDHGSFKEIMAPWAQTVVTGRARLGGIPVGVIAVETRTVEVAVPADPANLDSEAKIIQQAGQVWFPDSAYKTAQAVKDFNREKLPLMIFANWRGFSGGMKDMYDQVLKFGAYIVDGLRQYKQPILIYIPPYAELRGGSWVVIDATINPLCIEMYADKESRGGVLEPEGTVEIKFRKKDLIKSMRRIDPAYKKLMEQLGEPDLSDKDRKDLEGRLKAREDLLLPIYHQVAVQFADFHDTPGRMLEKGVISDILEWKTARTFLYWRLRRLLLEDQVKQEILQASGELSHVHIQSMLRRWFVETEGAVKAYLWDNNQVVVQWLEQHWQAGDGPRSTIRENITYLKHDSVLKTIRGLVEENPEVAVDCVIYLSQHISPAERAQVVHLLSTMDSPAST

CO[C@]1(C)CC[C@]2(CC1)NC(=O)C(c1cc(-c3ccc(Cl)c(F)c3)ccc1C)=C2O [Example V.2-a, (5r,8r)-3-(4′-Chloro-3′-fluoro-4-methylbiphenyl-3-yl)-4-hydroxy-8-methoxy-8-methyl-1-azaspiro[4.5]dec-3-en-2-one]
IC50 ([1]; listed as V.4-a): 83 nM and 249 nM and 63 nM and 67 nM and 154 nM and 184 nM (2×) and 90 nM and 87 nM and 75 nM | IC50 [1]: 83 nM and 249 nM and 63 nM and 67 nM and 154 nM and 184 nM (2×) and 90 nM and 87 nM and 75 nM | Selectivity ACC1 vs. ACC2 (mean of the individual measurements ± standard deviation) [2]: 57.2 ± 6.4 | Selectivity ACC1 vs. ACC2 (mean of the individual measurements ± standard deviation) ([2]; listed as V.4-a): 57.2 ± 26.4 | IC50 [3]: 9.56 µM and 9.2 µM and 4.99 µM and 5.8 µM and 8.63 µM and 7.81 µM and 8.81 µM and 3.99 µM and 2.14 µM and 2.9 µM | IC50 ([3]; listed as V.4-a): 9.56 µM and 9.2 µM and 4.99 µM and 5.8 µM and 8.63 µM and 7.81 µM and 8.81 µM and 3.99 µM and 2.14 µM and 2.9 µM | Deaths [4, 8]: 0 of 9 | T/C [4, 8]: 0.71 | Deaths [4, 9]: 1 of 9 | T/C [4, 9]: 0.27 | Deaths [4, 10]: 0 of 9 | T/C [4, 10]: 0.44 | tolerability (good: body weight change <=minus 10% and 100% survival) ([4]; administration 2 times per day): no good tolerability | tolerability (good: body weight change <=minus 10% and 100% survival) ([4]; administration once per day): good tolerability | logMA [5]: 1.67 | ther. AUC (mouse) ([6]; dosage (mouse) 80 mg/kg 1 × per day): 544 µg·h/mL | ther. AUC (mouse) ([6]; dosage (mouse) 80 mg/kg 2 × per day): 672 µg·h/mL | Deaths ([7]; 10 mg/kg oral): 0 of 4 | Deaths ([7]; 20 mg/kg oral): 0 of 4 | Deaths ([7]; 40 mg/kg oral): 0 of 4 | Deaths ([7]; 80 mg/kg oral): 0 of 4 | MTD at 21 days ([7]; female, NMRI-nude (nu/nu), mouse, in vivo, 21-day treatment, administration once per day, oral): > 80 mg/kg

Source: patent US9278925B2, “Substituted 3-(biphenyl-3-yl)-4-hydroxy-8-methoxy-1-azaspiro[4.5]dec-3-en-2-one” (BAYER INTELLECTUAL PROPERTY GMBH, priority 2011, dated 2016)
